Reference: patent US8853229B2, “Composition containing statins and omega-3 fatty acids” (Sigma-Tau Industrie Farmaceutiche Riunite S.p.A., priority 2004, dated 2014)

Experiments:
Assay type in all cases: in vivo, mouse
[1] = test system: C57BL/KsJ db/db mice; assay: Blood glucose levels of db/db mice (antidiabetic activity); conditions: for Glucose: mean ± S.E.
Source text: Mutations in laboratory animals have made it possible to develop models that present non-insulin-dependent diabetes associated with obesity, hyperlipidaemia and insulin resistance and that enable us to test the efficacy of new antidiabetic compounds (Reed and Scribner, Diabetes, obesity and metabolism 1: 75-86, 1999).
A much used genetically diabetic mouse model is the C57BL/KsJ db/db mouse.
The genetic basis of this model is a defect in the leptin receptor gene which gives rise to leptin resistance and leads to hyperphagia, obesity, hyperinsulinaemia and insulin resistance, with subsequent symptoms of insufficient insulin secretion and hyperglycaemia (Kodama et al., Diabetologia 37: 739-744, 1994; Chen et al., Cell 84: 491-495, 1996). Since hyperglycaemia is accompanied by obesity and insulin resistance, the db/db mouse has characteristics that are close to those of type 2 diabetes in man and is useful for assaying insulin-sensitising compounds.
(§1) The C57BL/KsJ db/db mice used in the experiments were supplied by Jackson Lab (via Ch. River). After 10 days of acclimatisation in standard conditions (22±2° C.; 55±15% humidity; 15-20 air changes/hour; 12 hour light-darkness cycle with light from 7 a.m. to 7 p.m.) on a standard 4 RF21 diet (Mucedola), blood samples were taken in post-absorption conditions (fasting from 8.30 a.m. to 4.30 p.m.) from the caudal vein with the aid of a Jelco 22G catheter (Johnson and Johnson). Glucose, insulin, triglyceride, cholesterol, free fatty acid and urea levels were checked in the plasma to ensure well-matched distribution of the mice in the treatment groups.
At the start of treatment, the body weight of the animals was checked and monitoring of the animals' consumption of water and feed was scheduled.
(§2) The mice were divided into groups and treated orally twice daily with:
(§3) Omega-3 fatty acid (EPA+DHA 1:1) 200 mg/kg;
(§4) Omega-3 fatty acid (200 mg/kg)+simvastatin (100 mg/kg);
(§5) Omega-3 fatty acid (200 mg/kg)+simvastatin (100 mg/kg); Coenzyme Q10 (50 mg/kg)+resveratrol (5 mg/kg)+policosanols (hexacosanol 25 mg/kg)+pantethine (100 mg/kg+selenium (0.5 μg/kg)+zinc (2.5 mg/kg).
(§6) In the course of the experiment, serum glucose levels, glucose tolerance (OGTT), a number of lipid status variables and weight gain were monitored.

[2] = test system: C57BL/KsJ db/db mice; assay: Oral glucose tolerance test (OGTT) in db/db mice; conditions: oral twice daily for 18 days, OGTT glucose 3 g/kg, fasted 18 hours, 5 hours after last treatment
Description: (§7) The C57BL/KsJ db/db mice used in the experiments were supplied by Jackson Lab (via Ch. River). […] Glucose, insulin, triglyceride, cholesterol, free fatty acid and urea levels were checked in the plasma to ensure well-matched distribution of the mice in the treatment groups.
as §2, §3, §4, §5, §6

[3] = test system: C57BL/KsJ db/db mice; assay: Plasma fructosamine levels of db/db mice; conditions: oral twice daily for 25 days, post-absorption condition, 7.30 hours after last treatment
Description: as §1, §2, §3, §4, §5, §6

[4] = test system: C57BL/KsJ db/db mice; assay: Plasma triglyceride levels of db/db mice; conditions: oral twice daily for 25 days, post-absorption condition, 7.30 hours after last treatment
Description: as §7, §2, §3, §4, §5, §6

[5] = test system: C57BL/KsJ db/db mice; assay: Plasma HDL-cholesterol levels of db/db mice; conditions: oral twice daily for 25 days, post-absorption conditions, 7.30 hours after last treatment
Description: as §1, §2, §3, §4, §5, §6

[6] = oral twice daily for 12 days, feeding condition, approx. 15 hours after last treatment
[7] = oral twice daily for 18 days, fasted for 18 hours, 5 hours after last treatment

## CCC(C)(C)C(=O)O[C@H]1C[C@@H](C)C=C2C=C[C@H](C)[C@H](CC[C@@H]3C[C@@H](O)CC(=O)O3)[C@H]21 [Simvastatin]
[1]; [6]
  % Variation (glucose) vs control: −7.6%
  Glucose: 450 ± 21 mg/dL
[1]; oral twice daily for 12 days, post-absorption condition (fasting 9 a.m. to 5 p.m.), 8 hours after last treatment
  Glucose: 419 ± 33 mg/dL
[1]; oral twice daily for 12 days, post-absorption condition, 8 hours after last treatment
  % Variation (glucose) vs control: 1.2%
[1]; [7]
  % Variation (glucose) vs control: −5.5%
  Glucose: 325 ± 27 mg/dL
[2]
  % Variation (AUC glucose, OGTT) vs control: −5.9%
[2]; mean ± S.E.
  AUC Glucose (OGTT): 48174 ± 3555 u.a.
[3]
  % Variation (fructosamine) vs control: −2.5%
[3]; mean ± S.E.
  Fructosamine: 0.78 ± 0.12 mM
[4]
  Variation (triglycerides) vs control: −16.5%
[4]; mean ± S.E.
  Triglycerides: 79.7 ± 5.1 mg/dL
[5]
  % Variation (HDL-cholesterol) vs control: −11.7%
[5]; mean ± S.E.
  HDL-cholesterol: 72.4 ± 4.6 mg/dL
